Measurements taken from patent US8211901B2, “Naphthamide derivatives as multi-target protein kinase inhibitors and histone deacetylase inhibitors” (Shenzhen Chipscreen Biosciences Ltd., priority 2009, dated 2012).

Columns and labels:
HUVEC cells = assay: VEGF dependent cell proliferation (MTS); format: cell-based; conditions: Homo sapiens, VEGF 165 50 ng/ml, 72 hours, serum-free medium, read-out: GI50 nM (VEGF ligand-dependent cell proliferation)
Experimental: VEGF Dependent Cell Proliferation:
HUVEC cells were plated into 96-well plates at 6,000 per well and incubated with serum-free medium for 2 hours. Compounds and VEGF 165 (50 ng/ml) were added and incubated for 72 hours in serum-free medium. The effects on proliferation were determined by addition of MTS reagent (Promega) according to the instruction, incubation for 2 hours at 37° C. in CO2 incubator, and record the absorbance at 490 nm using an ELISA plate reader.

A549 = assay: Tumor cell proliferation (MTS), A549; format: cell-based; conditions: Homo sapiens, 72 hours, complete medium
Experimental: (§1) Measurement of In Vivo Cell Proliferation:
(§2) Tumor cells were trypsinized and plated into 96-well plates at 3,000 per well and incubated in complete medium with 10% FBS for 24 hours. Compounds were added over a final concentration range of 100 μmol/L to 100 nmol/L in 0.1% DMSO and incubated for 72 hours in complete medium. The effects on proliferation were determined by addition of MTS reagent (Promega) according to the instruction, incubation for 2 hours at 37° C. in CO2 incubator, and record the absorbance at 490 nm using an ELISA plate reader.
(§3) Human Cell Lines are Listed Below:
A549: Non small cell lung carcinoma

MCF-7 = assay: Tumor cell proliferation (MTS), MCF-7; format: cell-based; conditions: Homo sapiens, MCF7; 72 hours, complete medium
Experimental: as §1, §2, §3
MCF-7: Mammary gland adenocarcinoma

Class I HDAC = assay: P21 reporter gene assay in HeLa cells; format: cell-based; conditions: 24 hours
Experimental: HDAC subtype selectivity inhibition assay of tested compounds was carried out by several reporter gene assays experiments. Briefly, HeLa cells were seeded in 96-well plates the day before transfection to give a confluence of 50-80%. Cells were transfected with one of reporter gene plasmid containing a promoter sequence or response element upstream of a luciferase gene construct using FuGene6 transfection reagent according to the manufacturer's instruction (Roche). The promoters or response elements including p21-promoter was fused upstream to the luciferase gene reporter construct. For normalizing the transfection efficiency, a GFP expression plasmid was cotransfected. Cells were allowed to express protein for 24 hours followed by addition of individual compounds or the vehicle (DMSO). 24 hours later the cells were harvested, and the luciferase assay and GFP assay were performed using corresponding assay kits according to the manufacturer's instructions (Promega).

Bel-7402 = assay: Tumor cell proliferation (MTS), Bel-7402; format: cell-based; conditions: Homo sapiens, 72 hours, complete medium
Experimental: as §1, §2, §3
Bel-7402: Hepatocellular carcinoma

HCT-8 = assay: Tumor cell proliferation (MTS), HCT-8; format: cell-based; conditions: Homo sapiens, 72 hours, complete medium
Experimental: as §1, §2, §3
HCT-8: Ileocecal colorectal adenocarcinoma

A-498 = assay: Tumor cell proliferation (MTS), A-498; format: cell-based; conditions: Homo sapiens, A498; 72 hours, complete medium
Experimental: as §1, §2

[1] = tested on: total HDAC enzyme (HeLa extract); assay: In vitro inhibition of total HDAC enzyme activity (HDAC Fluorimetric Assay/Drug Discovery Kit); format: biochemical
Experimental: Measurement of In Vitro Inhibition of Total HDAC Enzyme Activity:
The in vitro inhibition of total HDAC enzyme was determined by HDAC Fluorimetric Assay/Drug Discovery Kit (BIOMOL) according to manufacture's instruction. • 1. Add Assay buffer, diluted trichostatin A or test inhibitor to appropriate wells of the microtiter plate. Following table lists examples of various assay types and the additions required for each test.
• 2. Add diluted HeLa extract or other HDAC sample to all wells except those that are to be “No Enzyme Controls” (Blank). • 3. Allow diluted Fluor de Lys™ Substrate and the samples in the microtiter plate to equilibrate to assay temperature (25° C.). • 4. Initiate HDAC reactions by adding diluted substrate (25 μl) to each well and mixing thoroughly. • 5. Allow HDAC reactions to proceed for desired length of time and then stop them by addition of Fluor de Lys™ Developer (50 μl). Incubate plate at room temperature (25° C.) for 10-15 min. • 6. Read samples in a microtiter-plate reading fluorimeter capable of excitation at a wavelength in the range 350-380 nm and detection of emitted light in the range 440-460 nm. Measurement of In Vivo Inhibition of HDAC Subtype Activity: […]

human PDGFRβ = target: T1, human PDGFRβ (Homo sapiens, UniProt P09619); assay: PDGF dependent cell proliferation (MTS); format: cell-based; conditions: PDGFRβ NIH-3T3 cells, PDGF BB 50 ng/ml, 72 hours, serum-free medium; read-out: GI50 nM (PDGF ligand-dependent cell proliferation)
T1 construct: expressed in transfected cells
Experimental: PDGF Dependent Cell Proliferation:
NIH-3T3 mouse fibroblasts cell line engineered to stably express human PDGFIRβ was constructed and used to evaluate PDGF dependent cell proliferation. PDGFRβ NIH-3T3 cells were plated into 96-well plates at 5,000 per well and incubated with serum-free medium for 24 hours. Compounds and PDGF BB (50 ng/ml) were added and incubated for 72 hours in serum-free medium. The effects on proliferation were determined by addition of MTS reagent (Promega) according to the instruction, incubation for 2 hours at 37° C. in CO2 incubator, and record the absorbance at 490 nm using an ELISA plate reader.

T1 sequence (P09619 33-1106): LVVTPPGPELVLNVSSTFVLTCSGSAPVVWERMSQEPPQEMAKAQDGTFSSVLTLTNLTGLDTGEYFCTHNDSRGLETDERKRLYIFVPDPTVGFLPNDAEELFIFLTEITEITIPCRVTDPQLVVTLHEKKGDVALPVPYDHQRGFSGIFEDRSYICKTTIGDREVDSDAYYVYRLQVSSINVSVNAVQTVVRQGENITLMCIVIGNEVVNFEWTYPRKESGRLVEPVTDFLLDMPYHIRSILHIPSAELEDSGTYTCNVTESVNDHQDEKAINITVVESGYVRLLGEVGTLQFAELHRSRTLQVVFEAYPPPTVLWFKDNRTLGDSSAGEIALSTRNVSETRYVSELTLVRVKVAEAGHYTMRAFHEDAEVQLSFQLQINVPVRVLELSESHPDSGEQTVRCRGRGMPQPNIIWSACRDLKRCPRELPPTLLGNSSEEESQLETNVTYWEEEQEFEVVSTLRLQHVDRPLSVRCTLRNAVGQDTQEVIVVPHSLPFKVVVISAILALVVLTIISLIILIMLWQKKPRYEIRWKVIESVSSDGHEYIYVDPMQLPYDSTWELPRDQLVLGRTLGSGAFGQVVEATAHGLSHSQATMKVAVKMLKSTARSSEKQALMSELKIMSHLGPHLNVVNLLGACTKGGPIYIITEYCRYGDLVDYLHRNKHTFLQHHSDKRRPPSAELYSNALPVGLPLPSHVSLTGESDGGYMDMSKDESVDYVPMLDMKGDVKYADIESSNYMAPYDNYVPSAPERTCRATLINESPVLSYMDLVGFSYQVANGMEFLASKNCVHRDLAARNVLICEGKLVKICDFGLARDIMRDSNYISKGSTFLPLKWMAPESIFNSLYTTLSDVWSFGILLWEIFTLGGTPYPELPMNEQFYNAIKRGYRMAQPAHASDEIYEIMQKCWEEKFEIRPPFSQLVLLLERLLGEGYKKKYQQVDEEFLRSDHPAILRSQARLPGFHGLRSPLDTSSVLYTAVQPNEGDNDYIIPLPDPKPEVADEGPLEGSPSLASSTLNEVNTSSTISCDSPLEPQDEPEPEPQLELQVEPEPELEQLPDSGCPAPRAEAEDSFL

GI50 (A549) | GI50 (MCF-7) | Class I HDAC (P21 reporter assay) Fold Induction at 10 μM (Class I HDAC) | GI50 (Bel-7402) | GI50 (HCT-8) | GI50 (A-498) | % inhibition of total HDAC enzyme activity at 30 μM [1] | GI50 (human PDGFRβ) | SMILES | GI50 (HUVEC cells)
30 µM | 6.1 µM | 12.1 Fold | 30 µM | 4.9 µM | 14.7 µM | 47.9% | 69 nM | COc1cc2ncnc(Oc3ccc4c(C(=O)NCc5ccc(C(=O)Nc6ccccc6N)cn5)cccc4c3)c2cc1OC [Example 25] | 13 nM
7.4 µM | 8.9 µM | 1.2 Fold | 12.1 µM | 4.1 µM | 4.2 µM | 14.4% | 3 nM | COc1cc2nccc(Oc3ccc4c(C(=O)Nc5ccc(F)cc5N)cccc4c3)c2cc1OC [Example 36, N-(2-amino-4-fluorophenyl)-6-(6,7-dimethoxyquinolin-4-yloxy)-1-naphthamide] | 2 nM
– | – | 1.4 Fold | – | – | – | 21.9% | 11 nM | COc1ccc(NC(=O)c2cccc3cc(Oc4ncnc5cc(OC)c(OC)cc45)ccc23)c(N)c1 [Example 19, N-(2-amino-4-methoxyphenyl)-6-(6,7-dimethoxyquinazolin-4-yloxy)-1-naphthamide] | 23 nM
– | – | 1.5 Fold | – | – | – | 21.9% | 23 nM | COc1cc2ncnc(Oc3ccc4c(C(=O)Nc5ccc(Cl)cc5N)cccc4c3)c2cc1OC [Example 20, N-(2-amino-4-chlorophenyl)-6-(6,7-dimethoxyquinazolin-4-yloxy)-1-naphthamide] | 6 nM
– | – | 1.1 Fold | – | – | – | 18.6% | 19 nM | COc1cc2ncnc(Oc3ccc4c(C(=O)Nc5ccc(Br)cc5N)cccc4c3)c2cc1OC [Example 21, N-(2-amino-4-bromophenyl)-6-(6,7-dimethoxyquinazolin-4-yloxy)-1-naphthamide] | 5 nM
30 µM | 4.3 µM | 11.3 Fold | 30 µM | 5.7 µM | 14.7 µM | 49.4% | 148 nM | COc1cc2ncnc(Oc3ccc4c(C(=O)NCc5ccc(C(=O)Nc6ccccc6N)cc5)cccc4c3)c2cc1OC [Example 23, N-(4-((2-aminophenyl)carbamoyl)benzyl)-6-(6,7-dimethoxyquinazolin-4-yloxy)-1-naphthamide] | 18 nM
– | – | 1.3 Fold | – | – | – | 6.2% | 48 nM | Nc1ccccc1NC(=O)c1cccc2cc(Oc3ccnc4c(C(F)(F)F)cccc34)ccc12 [Example 42, N-(2-aminophenyl)-6-(8-trifluoromethylquinolin-4-yloxy)-1-naphthamide] | 1000 nM
– | – | 1.1 Fold | – | – | – | 19.3% | 479 nM | Nc1ccccc1NC(=O)c1cccc2cc(Oc3ccnc4cc(Cl)ccc34)ccc12 [Example 41, N-(2-aminophenyl)-6-(7-chloroquinolin-4-yloxy)-1-naphthamide] | 105 nM
– | – | 1.1 Fold | – | – | – | 17% | 372 nM | COc1cc2ncnc(Oc3ccc4c(C(=O)Nc5ccc(C(F)(F)F)cc5N)cccc4c3)c2cc1OC [Example 22, N-(2-amino-4-trifluoromethylphenyl)-6-(6,7-dimethoxyquinazolin-4-yloxy)-1-naphthamide] | 3 nM
30 µM | 9.4 µM | 3.1 Fold | 30 µM | 8 µM | 6.9 µM | 39.3% | 74 nM | COc1cc2nccc(Oc3ccc4c(C(=O)NCc5ccc(C(=O)Nc6ccccc6N)cn5)cccc4c3)c2cc1OC [Example 38] | 25 nM
– | – | 1.1 Fold | – | – | – | 17.1% | 15 nM | COc1cc2ncnc(Oc3ccc4c(C(=O)Nc5ccc(C)cc5N)cccc4c3)c2cc1OC [Example 18, N-(2-amino-4-methylphenyl)-6-(6,7-dimethoxyquinazolin-4-yloxy)-1-naphthamide] | 7 nM
– | – | 1.2 Fold | – | – | – | 15.9% | 32 nM | Nc1ccccc1NC(=O)c1cccc2cc(Oc3ccnc4ccccc34)ccc12 [Example 39, N-(2-aminophenyl)-6-(quinolin-4-yloxy)-1-naphthamide] | 107 nM
7.7 µM | 13.3 µM | 1.2 Fold | 19.5 µM | 8.9 µM | 9.1 µM | 19.3% | 5 nM | COc1cc2nccc(Oc3ccc4c(C(=O)Nc5ccccc5N)cccc4c3)c2cc1OC [Example 35, N-(2-aminophenyl)-6-(6,7-dimethoxyquinolin-4-yloxy)-1-naphthamide] | 1 nM
30 µM | 30 µM | 1.1 Fold | 30 µM | 3 µM | ≥ 30 µM | 22.5% | 40 nM | COc1cc2ncnc(Oc3ccc4c(C(=O)Nc5ccc(F)cc5N)cccc4c3)c2cc1OC [Example 17, N-(2-amino-4-fluorophenyl)-6-(6,7-dimethoxyquinazolin-4-yloxy)-1-naphthamide] | 3 nM
11.2 µM | 3.87 µM | 33 Fold | 18.9 µM | 7.71 µM | 12.1 µM | – | – | Nc1cc(F)ccc1NC(=O)c1ccc(CNC(=O)/C=C/c2cccnc2)cc1 [CS055, Chidamide, reference compound] | –
– | – | 1.3 Fold | – | – | – | 22.2% | – | Cc1cccc2c(Oc3ccc4c(C(=O)Nc5ccccc5N)cccc4c3)ccnc12 [Example 40, N-(2-aminophenyl)-6-(8-methylquinolin-4-yloxy)-1-naphthamide] | 1000 nM
– | – | 6.1 Fold | – | – | – | 38.7% | – | Nc1ccccc1NC(=O)c1ccc(CNC(=O)c2cccc3cc(Oc4ccnc5cc(Cl)ccc45)ccc23)cc1 [Example 43, N-(4-((2-aminophenyl)carbamoyl)benzyl)-6-(7-chloroquinolin-4-yloxy)-1-naphthamide] | 288 nM
